From article PMC10835127, “Viruses traverse the human proteome through peptide interfaces that can be biomimetically leveraged for drug discovery” (Proceedings of the National Academy of Sciences of the …, 2024)
Like-named read-outs stand apart in the source and are kept apart here.

Assays:
HIV1 strain NL4-3 = format: cell-based
[1] = system: F. novicida (strain U112); format: cell-based
HCV replicon = format: cell-based
influenza A H1N1 virus = conditions: 48 hr post-treatment, A549
[2] = normalized mean of HIV1 replication readout
[3] = normalized mean of EBV replication readout
[4] = normalized mean of HCV replicon readout

Q: Which results are given for TYGTC [CPEP97]?
A: HIV1 Norm MEAN (HIV1 strain NL4-3; [2]): 0.8497; Francisella novicida Norm AUC [1]: 0.4338; EBV Norm MEAN (EBV; [3]): 1.147; HCV Norm MEAN (HCV replicon; [4]): 0.1345; Neuraminidase activity normalized to vehicle (influenza A H1N1 virus; 200 µM peptide): 0,8478; Neuraminidase activity normalized to vehicle (influenza A H1N1 virus; 0,823 µM peptide): 0,83; Neuraminidase activity normalized to vehicle (influenza A H1N1 virus; 22,2 µM peptide): 0,836; Neuraminidase activity normalized to vehicle (influenza A H1N1 virus; 2,4691 µM peptide): 0,6842; Neuraminidase activity normalized to vehicle (influenza A H1N1 virus; 7,4074 µM peptide): 0,8009; Neuraminidase activity normalized to vehicle (influenza A H1N1 virus; 66,6667 µM peptide): 0,8711

Q: LHCYE [CPEP152] was tested. Which “HIV1 Norm MEAN” value (HIV1 strain NL4-3; [2]) did it give?
A: 1.7684

Q: What about the “Francisella novicida Norm AUC” value [1] of the same substance?
A: 0.5262

Q: And the “EBV Norm MEAN” value (EBV; [3])?
A: 1.379

Q: And the “HCV Norm MEAN” value (HCV replicon; [4])?
A: 0.1555

Q: What about the “Neuraminidase activity normalized to vehicle” value (influenza A H1N1 virus; 200 µM peptide) of the same substance?
A: 1,0605

Q: And the “Neuraminidase activity normalized to vehicle” value (influenza A H1N1 virus; 0,823 µM peptide)?
A: 0,8889

Q: What about the “Neuraminidase activity normalized to vehicle” value (influenza A H1N1 virus; 22,2 µM peptide) of the same substance?
A: 0,9121

Q: And the “Neuraminidase activity normalized to vehicle” value (influenza A H1N1 virus; 2,4691 µM peptide)?
A: 0,8832

Q: And the “Neuraminidase activity normalized to vehicle” value (influenza A H1N1 virus; 7,4074 µM peptide)?
A: 0,8045

Q: What about the “Neuraminidase activity normalized to vehicle” value (influenza A H1N1 virus; 66,6667 µM peptide) of the same substance?
A: 1,0197

Q: With RPEPTAPPEE [CPEP116] as the substance, how does the “HIV1 Norm MEAN” value (HIV1 strain NL4-3; [2]) read?
A: 0.3699

Q: And the “Francisella novicida Norm AUC” value [1]?
A: 0.6494

Q: And the “EBV Norm MEAN” value (EBV; [3])?
A: 0.4152

Q: And the “HCV Norm MEAN” value (HCV replicon; [4])?
A: 1.054

Q: And the “Neuraminidase activity normalized to vehicle” value (influenza A H1N1 virus; 200 µM peptide)?
A: 0,7624

Q: And the “Neuraminidase activity normalized to vehicle” value (influenza A H1N1 virus; 0,823 µM peptide)?
A: 0,9564

Q: And the “Neuraminidase activity normalized to vehicle” value (influenza A H1N1 virus; 22,2 µM peptide)?
A: 0,683

Q: What about the “Neuraminidase activity normalized to vehicle” value (influenza A H1N1 virus; 2,4691 µM peptide) of the same substance?
A: 0,8677

Q: And the “Neuraminidase activity normalized to vehicle” value (influenza A H1N1 virus; 7,4074 µM peptide)?
A: 0,7015

Q: And the “Neuraminidase activity normalized to vehicle” value (influenza A H1N1 virus; 66,6667 µM peptide)?
A: 0,6644

Q: Which “HIV1 Norm MEAN” value (HIV1 strain NL4-3; [2]) does the source give for IVISDSEEE [CPEP121] here?
A: 0.9208

Q: And the “Francisella novicida Norm AUC” value [1]?
A: 1.126

Q: What about the “EBV Norm MEAN” value (EBV; [3]) of the same substance?
A: 1.138

Q: What about the “HCV Norm MEAN” value (HCV replicon; [4]) of the same substance?
A: 0.7416

Q: And the “Neuraminidase activity normalized to vehicle” value (influenza A H1N1 virus; 200 µM peptide)?
A: 1,0697

Q: What about the “Neuraminidase activity normalized to vehicle” value (influenza A H1N1 virus; 0,823 µM peptide) of the same substance?
A: 1,0507

Q: And the “Neuraminidase activity normalized to vehicle” value (influenza A H1N1 virus; 22,2 µM peptide)?
A: 1,0096

Q: And the “Neuraminidase activity normalized to vehicle” value (influenza A H1N1 virus; 2,4691 µM peptide)?
A: 1,0097

Q: What about the “Neuraminidase activity normalized to vehicle” value (influenza A H1N1 virus; 7,4074 µM peptide) of the same substance?
A: 0,9639

Q: What about the “Neuraminidase activity normalized to vehicle” value (influenza A H1N1 virus; 66,6667 µM peptide) of the same substance?
A: 1,0552

Q: With LEDLL [CPEP131] as the substance, how does the “HIV1 Norm MEAN” value (HIV1 strain NL4-3; [2]) read?
A: 2.616

Q: And the “Francisella novicida Norm AUC” value [1]?
A: 1.169

Q: And the “EBV Norm MEAN” value (EBV; [3])?
A: 1.433

Q: What about the “HCV Norm MEAN” value (HCV replicon; [4]) of the same substance?
A: 0.1994

Q: And the “Neuraminidase activity normalized to vehicle” value (influenza A H1N1 virus; 200 µM peptide)?
A: 1,0859

Q: And the “Neuraminidase activity normalized to vehicle” value (influenza A H1N1 virus; 0,823 µM peptide)?
A: 1,0236

Q: And the “Neuraminidase activity normalized to vehicle” value (influenza A H1N1 virus; 22,2 µM peptide)?
A: 1,0471

Q: And the “Neuraminidase activity normalized to vehicle” value (influenza A H1N1 virus; 2,4691 µM peptide)?
A: 1,0486

Q: What about the “Neuraminidase activity normalized to vehicle” value (influenza A H1N1 virus; 7,4074 µM peptide) of the same substance?
A: 0,9867

Q: And the “Neuraminidase activity normalized to vehicle” value (influenza A H1N1 virus; 66,6667 µM peptide)?
A: 1,1075

Q: Which “HIV1 Norm MEAN” value (HIV1 strain NL4-3; normalized mean of HIV1 replication readout, peptide screen) does the source give for “CPEP89: peptide of the viral peptide library; sequence page not shown (YDVLKAACKSVIKT)” here?
A: 4.725

Q: And the “Francisella novicida Norm AUC” value [1]?
A: 0.9882

Q: What about the “EBV Norm MEAN” value (EBV; normalized mean of EBV replication readout, peptide screen) of the same substance?
A: 0.6285

Q: And the “HCV Norm MEAN” value (HCV replicon; normalized mean of HCV replicon readout, peptide screen)?
A: 1.184

Q: And the “Neuraminidase activity normalized to vehicle” value (influenza A H1N1 virus; 200 µM peptide)?
A: 0,097

Q: What about the “Neuraminidase activity normalized to vehicle” value (influenza A H1N1 virus; 0,823 µM peptide) of the same substance?
A: 0,8515

Q: What about the “Neuraminidase activity normalized to vehicle” value (influenza A H1N1 virus; 22,2 µM peptide) of the same substance?
A: 0,6685

Q: What about the “Neuraminidase activity normalized to vehicle” value (influenza A H1N1 virus; 2,4691 µM peptide) of the same substance?
A: 0,8767

Q: And the “Neuraminidase activity normalized to vehicle” value (influenza A H1N1 virus; 7,4074 µM peptide)?
A: 0,7891

Q: And the “Neuraminidase activity normalized to vehicle” value (influenza A H1N1 virus; 66,6667 µM peptide)?
A: 0,2057

Q: With QRRGRTGRG [CPEP40] as the substance, how does the “HIV1 Norm MEAN” value (HIV1 strain NL4-3; [2]) read?
A: 0.4037

Q: What about the “Francisella novicida Norm AUC” value [1] of the same substance?
A: 1.732

Q: And the “EBV Norm MEAN” value (EBV; [3])?
A: 0.7195

Q: And the “HCV Norm MEAN” value (HCV replicon; [4])?
A: 0.7133

Q: And the “Neuraminidase activity normalized to vehicle” value (influenza A H1N1 virus; 200 µM peptide)?
A: 0,9281

Q: What about the “Neuraminidase activity normalized to vehicle” value (influenza A H1N1 virus; 0,823 µM peptide) of the same substance?
A: 1,0647

Q: And the “Neuraminidase activity normalized to vehicle” value (influenza A H1N1 virus; 22,2 µM peptide)?
A: 1,004

Q: What about the “Neuraminidase activity normalized to vehicle” value (influenza A H1N1 virus; 2,4691 µM peptide) of the same substance?
A: 0,9944

Q: And the “Neuraminidase activity normalized to vehicle” value (influenza A H1N1 virus; 7,4074 µM peptide)?
A: 1,0761

Q: And the “Neuraminidase activity normalized to vehicle” value (influenza A H1N1 virus; 66,6667 µM peptide)?
A: 0,9318

Q: “CPEP86: peptide of the viral peptide library; sequence page not shown (SGFGPLITHG)” was tested. Which “HIV1 Norm MEAN” value (HIV1 strain NL4-3; [2]) did it give?
A: 0.7849

Q: And the “Francisella novicida Norm AUC” value [1]?
A: 0.8325

Q: What about the “EBV Norm MEAN” value (EBV; [3]) of the same substance?
A: 1.554

Q: What about the “HCV Norm MEAN” value (HCV replicon; [4]) of the same substance?
A: 0.5296

Q: What about the “Neuraminidase activity normalized to vehicle” value (influenza A H1N1 virus; 200 µM peptide) of the same substance?
A: 0,9563

Q: And the “Neuraminidase activity normalized to vehicle” value (influenza A H1N1 virus; 0,823 µM peptide)?
A: 0,7964

Q: What about the “Neuraminidase activity normalized to vehicle” value (influenza A H1N1 virus; 22,2 µM peptide) of the same substance?
A: 1,0588

Q: And the “Neuraminidase activity normalized to vehicle” value (influenza A H1N1 virus; 2,4691 µM peptide)?
A: 1,0728

Q: And the “Neuraminidase activity normalized to vehicle” value (influenza A H1N1 virus; 7,4074 µM peptide)?
A: 0,943

Q: What about the “Neuraminidase activity normalized to vehicle” value (influenza A H1N1 virus; 66,6667 µM peptide) of the same substance?
A: 1,0345

Q: How did the “HIV1 Norm MEAN” value (HIV1 strain NL4-3) turn out when PEPTAPPEE [CPEP147] was run?
A: 0.3632

Q: What about the “Francisella novicida Norm AUC” value [1] of the same substance?
A: 1.176

Q: And the “EBV Norm MEAN” value (EBV)?
A: 0.5114

Q: What about the “HCV Norm MEAN” value (HCV replicon) of the same substance?
A: 1.15
